Experimental data reported in PubChem BioAssay (NCI).
“And” between values parts separate entries of the source, which are not always exact repeats. Equal values may be shown once.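 Protocol summary: plate cells (96-well), add compound at 5 concentrations, incubate 48 h, interpolate endpoints linearly. The concentration for 50% growth inhibition is given as GI50. TGI is the concentration that stops growth completely.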 Starred links: 1 amine or outer side, 2 acyl side, 3 side chain; linkers in the order of their positions; H or OH if unused. Non-standard residues stand in square brackets, D forms with d. Residues, ends and D or L forms follow the SMILES beside them. *: point of attachment. X14 = C/C=C/CC(C)C(O)[C@H](N[*:1])C(=O)[*:2]; Decanoyl = CCCCCCCCCC(=O)*; Leu(ol) = CC(C)C[C@H](N)CO; Iva = CC[C@](C)(N)C(=O)O; Aib = CC(C)(N)C(=O)O

The compounds below were run on MDA-MB-468 breast (assay: NCI anticancer screen, dose series, 48 h).

Row | SMILES | GI50 | TGI
1 | CCOC(=O)[C@@H](C)C[C@H](Cc1ccccc1)NC(=O)c1csc([C@@H](C[C@H](C(C)C)N(C)C(=O)[C@@H](NC(=O)[C@H]2C[C@H](O)CCN2C)C(C)C)OC(C)=O)n1 | < 1.67 nM | > 16700 nM
2 | Oc1ccc(Cc2ccc(O)c(C3CC(c4ccc(Cl)cc4)=NN3)c2)cc1C1CC(c2ccc(Cl)cc2)=NN1 (centres undefined) | 2850 nM | 9440 nM
3 | COC(=O)[C@@H](C)C[C@H](Cc1ccccc1)NC(=O)c1csc([C@@H](C[C@H](C(C)C)N(C)C(=O)C2(NC(=O)[C@H]3CCCCN3C)CCC2)OC(C)=O)n1 | 1.23 nM and 2.5 nM | > 25000 nM
4 | O=C(Nc1ccc(I)cc1)c1cccc([N+](=O)[O-])c1O | 2070 nM | 7400 nM
5 | O=C1c2cccnc2C(=O)c2c1c(C(=O)OCCc1ccccn1)c1ccccn21 | 1840 nM | 5060 nM
6 | O=C(NS(=O)(=O)c1ccc(NC[C@H]2COCCO2)c([N+](=O)[O-])c1)c1ccc(N2CCN(CC3=C(c4ccc(Cl)cc4)CC4(CCC4)CC3)CC2)cc1Oc1cnc2[nH]ccc2c1 | 1790 nM | 4350 nM
7 | Cc1[nH]c(C(=O)Nc2ccc(S(=O)(=O)N3CCCCC3)cc2OCCOCCOCCOCCOCCOCCOCCOCCOCCOc2cc(S(=O)(=O)N3CCCCC3)ccc2NC(=O)c2[nH]c(C)c3c2CCCCC3=O)c2c1C(=O)CCCC2 | 191 nM | 794 nM
8 | NC(=O)CCc1ccccc1Oc1nccc(-c2c(-c3ccc(F)cc3)ncn2C2CCNCC2)n1 | 10000 nM | > 25000 nM
9 | COc1cc2c(cc1OCCCCn1c(-c3cccs3)nc3ccccc31)N=C[C@@H]1CCCN1C2=O | 333 nM | 1600 nM
10 | CCC(C)CC(C)C(=O)c1c(O)ccn(O)c1=O (centres undefined) | 2100 nM | 9470 nM
11 | FC(F)(F)c1ccc(-c2ncc(-c3ccc(C(F)(F)F)cc3)c(NCc3cc(C(F)(F)F)cc(C(F)(F)F)c3)n2)cc1 | 3200 nM | 15500 nM
12 | N#C/C(=C\c1ccc(F)cc1)n1nc2cccc(F)c2n1 | 3050 nM | > 100000 nM
13 | CCCOc1ccc(/C=N/Nc2cc(C)nc3ccc(Cl)cc23)cc1 | 1690 nM | 3190 nM
14 | c1ccc(-c2cn(-c3ccccc3)c(-c3ccccc3)n2)cc1 | 10100 nM | 30500 nM
15 | C/C=C/CC(C)C(O)[C@H](NC(=O)[C@@H]1CCCN1C(=O)C(C)(C)NC(=O)CCCCCCCCC)C(=O)N[C@@](C)(CC)C(=O)N[C@@H](CCC(N)=O)C(=O)N[C@H](CCC(N)=O)C(=O)NC(C)(C)C(=O)N[C@@](C)(CC)C(=O)N[C@@H](CCC(N)=O)C(=O)N[C@H](CC(C)C)C(=O)N[C@H](CO)CC(C)C (stereo partly drawn) (Decanoyl-[Aib]P[X14][Iva]Q[dQ][Aib][Iva]Q[dL][Leu(ol)]) | 32.9 nM | 260 nM
16 | NCCCNc1nc2ccc(Cl)cc2c2c(=O)c3cc(F)ccc3sc12 | 2900 nM | 10100 nM
17 | CC(C)OCc1cc(CN2CCN(c3cccc(Cl)c3)CC2)c(O)c2ncccc12 | 346 nM | 1670 nM
18 | CCN1C(=O)N(CC)C2C1NC(=S)N2/N=C/C=C/c1ccccc1OC (centres undefined) | 35.3 nM | 38900 nM
19 | CCCCN(CC)CCCCCCCCCCN1CCCc2cc(OC)ccc21 | 1590 nM | 3580 nM

Row | SMILES | GI50 | TGI
20 | Brc1ccc(Nc2nc3ccccc3nc2Nc2ccc(Br)cc2)cc1 | 365 nM | 2580 nM
21 | CN1CCN(c2ccc(Nc3nc(NCCNS(=O)(=O)c4ccc5ccccc5c4)c4sccc4n3)cc2)CC1 | 2830 nM | 12200 nM
22 | O=C(Cc1ccc(Nc2ccnc(C(F)(F)F)c2)cc1)N/N=C/c1ccccc1O | 3000 nM | 39300 nM
23 | O=c1[nH]c(F)nc2c1ncn2C1OC(CO)C(O)C1O (centres undefined) | > 100000 nM | > 100000 nM
24 | O=Cc1ccc(-c2ccc(-c3ccc(C=O)o3)[se]2)o1 | 22600 nM | > 100000 nM
25 | O=C(O)c1ccc(C(=O)O)c(C(=O)O)c1.[NH-]C1CCCCC1[NH-].[Pt+2] | 35700 nM | > 100000 nM
26 | COc1ccc(C2CC(c3ccc4ccccc4c3)=NN2c2nc(O)c(C3=c4cc(OC)ccc4=NC3=O)s2)cc1 (centres undefined) | 46.2 nM | 200 nM
27 | NC(=N\N=C/c1ccc(Cl)cc1Cl)/C(N)=N\N=C/c1ccc(Cl)cc1Cl | 6870 nM | > 100000 nM
28 | O=C1/C(=C\c2ccccc2)CN(C(=O)c2ccccc2)C/C1=C\c1ccccc1 | 1690 nM | 3560 nM
29 | COc1cc(/C=C/C(=O)c2c(C)nc3ccccc3c2C)ccc1OCCCCOc1cc2c(cc1OC)C(=O)N1CCC[C@H]1C=N2 | 235 nM | 625 nM
30 | O=C(/C=C/c1cccc(S(=O)(=O)Nc2ccccc2)c1)NO | 241 nM | 5360 nM
31 | O=C1NC(=O)C(c2ccccc2)=C1Nc1ccccc1 | > 25000 nM | > 25000 nM
32 | FC(F)(F)c1cc(-c2ncn(/C=C\c3nnco3)n2)cc(C(F)(F)F)c1 | 85.4 nM | 740 nM
33 | COc1ncc(-c2ccc3nccc(C#CCN4CCN(S(C)(=O)=O)CC4)c3c2)cc1NS(=O)(=O)c1ccc(F)cc1F | 19.8 nM | 122 nM
34 | Cc1cc(C(O)(c2ccc(Nc3ccccc3)cc2)c2ccc(Nc3ccc(S(=O)(=O)O)cc3)cc2)ccc1N (centres undefined) | 480 nM | 2480 nM
35 | CCCCCCc1cc2cc(-c3csc(/C=C/c4ccccc4)n3)c(=O)oc2cc1O | 6100 nM | 28700 nM
36 | CN(CSc1ccc(Cl)cc1)c1ccc(CSc2ccc(Cl)cc2)cc1 | 1850 nM | 5070 nM
37 | CCC(C)(C)[C@H](NC(=O)[C@H]1CCCCN1C)C(=O)N(C)[C@H](C[C@@H](OC(C)=O)c1nc(C(=O)N[C@@H](Cc2ccccc2)C[C@H](C)C(=O)O)cs1)C(C)C | < 1.67 nM | < 1.67 nM
